Source: US7303876B2 (Applera Corporation, priority 2000, dated 2007)
Where two headings read alike, the source gives them in different places.

How the values were obtained:
Liver tissue [1] = test: Liver tissue disaggregation by 1% surfactant with or without Proteinase K at 60° C.; set-up: Tissue Disaggregation: scale not given here; details: for Tissue Disaggregation: 60° C., 1% surfactant
Method: To evaluate the ability of various cationic surfactants to increase the digestion of tissue by Proteinase K, liver slices were digested using reaction compositions including one of the sixteen surfactants (shown in Table 4), both with and without Proteinase K. The reducing agent dithiothreitol (DTT) was included to evaluate the effect of reducing conditions on tissue digestion. […] One of the sixteen surfactants was added to one pair of tubes to yield a final concentration of 1% surfactant. The seventeenth pair of tubes served as non-surfactant controls. One milligram (mg) of Proteinase K was added to one tube of each of the seventeen pairs.
PK=presence or absence of Proteinase K in the reaction composition; Y=Proteinase K was present; N=Proteinase K was not present in the reaction composition.

[2] = Solubility of surfactants (0.5% Sarkosyl, LDS, SDS, CTAB; 5.0% others) in salt solutions
Method: In certain instances, the solubility of detergents in high salt may relate to on the composition of the salt and the detergent itself. A mixing experiment was performed to examine the solubility of a variety of anionic, cationic, and nonionic surfactants in different salt compositions. […] The salt solutions contained Lil, Nal, KI, Rbl, Csl , GuSCN, GuHCl, or NaClO4, at pH 6.0 or 10.0. […] The solubility of the surfactants was scored as either soluble or insoluble. The solubility of the surfactant in the salt solution was determined initially by visual observations for cloudiness or precipitate formation. The resulting solutions were also centrifuged to verify the absence of a precipitate by the absence of a precipitate pellet.

slices of liver = test: Maceration of liver slices by reaction compositions at 65° C.
Method: Initially, a series of reaction compositions were analyzed for their ability to disaggregate a biological sample, e.g., slices of liver. These reaction compositions comprised 100 mM Tris, pH 8.0, 20 mM dithiothreitol (DTT), and optionally,1 mg/ml Proteinase K, surfactants (e.g., cationic, nonionic and anionic detergents), chaotropes, or the additive 1-methyl-2-pyrollidinone (Sigma). Each reaction compositions was placed in a tube with a slice of liver and then incubated at 65° C. The tubes were observed periodically to determine which reaction compositions were able to efficiently macerate the sample.

Liver tissue [3] = test: Nucleic acid release from liver slices, pH 6, 45° C., 30 minutes, surfactants and additives; details: with 1-methyl-2-pyrolidinone
Method: To compare CTACl to CTAB, those two surfactants were evaluated in parallel along with hexadecyltrimethylammonium bromide (HDTAB), hexadecyltrimethylammonium chloride (HDTACl), and Sarkosyl. Three additives, phenylglyoxal, acridine orange (e.g., Sigma #A6014), and 1-methyl-2-pyrolidinone, were also evaluated. Phenylglyoxal was tested to determine if it would reduce RNAse activity. […] 1-Methyl-2-pyrrolidinone was tested to see if it would enhance solubility of the sample by various reaction compositions.
Slices of liver-tissue (100-200 mg/sample) were placed into twenty-one Eppendorf tubes. Four hundred microliters of a reaction composition, comprising 100 mM MES, pH 6, 20 mM CaCl2, and 1 mg Proteinase K, was added to each tube.
The tubes were incubated at 45° C. for 30 minutes with mixing (Eppendorf Thermomixer, Model 5436). Surfactant: protease complexes were solubilized using methods the same as or similar to those described in Example 7. Remaining tissue fragments were removed by centrifugation using methods the same as or similar to those described in Example 7. The supernatant was phenol extracted, isopropanol precipitated, and ethanol washed using methods the same as or similar to those described in Example 6.

[4] = Fifteen Minutes Incubation, Proteinase K not present (N)
[5] = Fifteen Minutes Incubation, Proteinase K present (Y)
[6] = Fifty-Two Minutes Incubation, Proteinase K not present (N)
[7] = Fifty-Two Minutes Incubation, Proteinase K present (Y)
[8] = 1 mg/ml Proteinase K, 16-24 hr, 65° C., additive 0.1%
[9] = 1 mg/ml Proteinase K, 16-24 hr, 65° C., additive 1%
[10] = 1 mg/ml Proteinase K, 1 hr, 65° C., additive 0.1%
[11] = 1 mg/ml Proteinase K, 1 hr, 65° C., additive 1%
[12] = No Proteinase K, 16-24 hr, 65° C., additive 2%
[13] = No Proteinase K, 2-5 hr, 65° C., additive 2%
[14] = No Proteinase K, 72 hr, 65° C., additive 2%

O[C@H](CS)[C@H](O)CS (racemic) [DTT, dithiothreitol]
effect of reducing agent on tissue disaggregation (Liver tissue [1]; 20 mM dithiothreitol): did not seem to significantly effect tissue disaggregation

CCCCCCCCCCCC[N+](C)(C)Cc1ccccc1.[Br-] [Benzyldimethyldodecylammonium bromide]
Tissue Disaggregation (Liver tissue [1]; [4]): 0
Tissue Disaggregation (Liver tissue [1]; [5]): 0
Tissue Disaggregation (Liver tissue [1]; [6]): 0
Tissue Disaggregation (Liver tissue [1]; [7]): 1

CCCCCCCCCCCCCCCC[N+](C)(C)Cc1ccccc1.[Br-] [Benzyldimethylhexadecylammonium bromide]
Tissue Disaggregation (Liver tissue [1]; [4]): 0
Tissue Disaggregation (Liver tissue [1]; [5]): 0
Tissue Disaggregation (Liver tissue [1]; [6]): 0
Tissue Disaggregation (Liver tissue [1]; [7]): 1

CCCCCCCCCCCCCC[N+](C)(C)Cc1ccccc1.[Cl-] [Benzyldimethyltetradecyl ammonium chloride]
Tissue Disaggregation (Liver tissue [1]; [4]): 0
Tissue Disaggregation (Liver tissue [1]; [5]): 0
Tissue Disaggregation (Liver tissue [1]; [6]): 0
Tissue Disaggregation (Liver tissue [1]; [7]): 1

CCCCCCCCCCCCOCCOCCOCCO [Brij 30, triethyleneglycol monolauryl ether]
Solubility of surfactant ([2]; 4 M GuSCN, Urea, pH 6.0): S
Solubility of surfactant ([2]; 4 M GuSCN, Urea, pH 10.0): S
Solubility of surfactant ([2]; 4 M NaI, Urea, pH 6.0): S(V)
Solubility of surfactant ([2]; 6 M GuHCl, pH 6.0): S
Solubility of surfactant ([2]; 6 M GuHCl, pH 10.0): S
Solubility of surfactant ([2]; 6 M GuSCN, pH 6.0): S
Solubility of surfactant ([2]; 6 M GuSCN, pH 10.0): S
Solubility of surfactant ([2]; 6 M NaI, pH 6.0): S

C[C@H](CCC(=O)O)[C@H]1CC[C@H]2[C@@H]3[C@H](O)C[C@@H]4C[C@H](O)CC[C@]4(C)[C@H]3CC[C@]12C [Chenodeoxycholic Acid]
maceration of liver slice (slices of liver; [8]): 0%
maceration of liver slice (slices of liver; [9]): 0%
maceration of liver slice (slices of liver; [10]): 0%
maceration of liver slice (slices of liver; [11]): 0%
maceration of liver slice (slices of liver; [12]): 0%

C[C@H](CCC(=O)O)[C@H]1CC[C@H]2[C@@H]3[C@H](O)C[C@@H]4C[C@H](O)CC[C@]4(C)[C@H]3C[C@H](O)[C@]12C [Cholic Acid]
maceration of liver slice (slices of liver; [12]): 0%

C[C@H](CCC(=O)NCC(=O)O)[C@H]1CC[C@H]2[C@@H]3[C@H](O)C[C@@H]4C[C@H](O)CC[C@]4(C)[C@H]3C[C@H](O)[C@]12C [Glycocholic Acid]
maceration of liver slice (slices of liver; [8]): 0%
maceration of liver slice (slices of liver; [9]): 0%
maceration of liver slice (slices of liver; [10]): 0%
maceration of liver slice (slices of liver; [11]): 0%

Cl.N=C(N)N [Guanidinium chloride]
maceration of liver slice (slices of liver; 1 mg/ml Proteinase K, 2-5 hr, 65° C., additive 2 M): 0%
maceration of liver slice (slices of liver; No Proteinase K, 2-5 hr, 65° C., additive 2 M): 0%

N#CS.N=C(N)N [Guanidinium thiocyanate]
maceration of liver slice (slices of liver; 1 mg/ml Proteinase K, 2-5 hr, 65° C., additive 1 M): 25%
maceration of liver slice (slices of liver; No Proteinase K, 2-5 hr, 65° C., additive 1 M): 0%

CCCCCCCCCCCCCCCC[N+](C)(C)C.[Cl-] [HDTACl, hexadecyltrimethylammonium chloride]
high molecular weight nucleic acid by gel electrophoresis (Liver tissue [3]): High molecular weight nucleic acid was also observed

CCCCCCCC/C=C\CCCCCCCC[N+](C)(C)Cc1ccccc1.[Cl-] [Mackernium KP, olealkonium chloride]
Tissue Disaggregation (Liver tissue [1]; [4]): 0
Tissue Disaggregation (Liver tissue [1]; [5]): 1
Tissue Disaggregation (Liver tissue [1]; [6]): 0
Tissue Disaggregation (Liver tissue [1]; [7]): 4

CCCCCCCCCCCCCCCCCC[N+](C)(C)Cc1ccccc1.[Cl-] [Mackernium SDC-85, Stearalkonium chloride]
Tissue Disaggregation (Liver tissue [1]; [4]): 0
Tissue Disaggregation (Liver tissue [1]; [5]): 3
Tissue Disaggregation (Liver tissue [1]; [6]): 0
Tissue Disaggregation (Liver tissue [1]; [7]): 3

CCCCC(CC)COS(=O)(=O)[O-].[Na+] (stereo not shown) [NiaProof Type 8]
maceration of liver slice (slices of liver; [8]): 0%
maceration of liver slice (slices of liver; [9]): 0%
maceration of liver slice (slices of liver; [10]): 0%
maceration of liver slice (slices of liver; [11]): 0%
maceration of liver slice (slices of liver; [13]): 0%

CCCCCCCC(=O)O [Octanonic Acid]
maceration of liver slice (slices of liver; [14]): 0%

CCCCCCCCS(=O)(=O)O [Octyl sulfonate]
maceration of liver slice (slices of liver; [14]): 0%

CCCCCCCCCCCCCC[N+](C)(C)C.[Br-] [TTAB, tetradecyltrimethylammonium bromide]
Tissue Disaggregation (Liver tissue [1]; [4]): 0
Tissue Disaggregation (Liver tissue [1]; [5]): 0
Tissue Disaggregation (Liver tissue [1]; [6]): 0
Tissue Disaggregation (Liver tissue [1]; [7]): 1

C[C@H](CCC(=O)NCCS(=O)(=O)O)[C@H]1CC[C@H]2[C@@H]3[C@H](O)C[C@@H]4C[C@H](O)CC[C@]4(C)[C@H]3CC[C@]12C [Taurochenodeoxycholic Acid]
maceration of liver slice (slices of liver; [8]): 0%
maceration of liver slice (slices of liver; [9]): 0%
maceration of liver slice (slices of liver; [10]): 0%
maceration of liver slice (slices of liver; [11]): 0%

C[C@H](CCC(=O)NCCS(=O)(=O)O)[C@H]1CC[C@H]2[C@@H]3[C@H](O)C[C@@H]4C[C@H](O)CC[C@]4(C)[C@H]3C[C@H](O)[C@]12C [Taurocholic Acid]
maceration of liver slice (slices of liver): 0%

C[C@H](CCC(=O)NCCS(=O)(=O)O)[C@H]1CC[C@H]2[C@@H]3CC[C@@H]4C[C@H](O)CC[C@]4(C)[C@H]3C[C@H](O)[C@]12C [Taurodeoxycholic Acid]
maceration of liver slice (slices of liver; [8]): 0%
maceration of liver slice (slices of liver; [9]): 0%
maceration of liver slice (slices of liver; [10]): 0%
maceration of liver slice (slices of liver; [11]): 0%

C[N+](C)(C)C.[Cl-] [Tetramethylammonium chloride]
maceration of liver slice (slices of liver; 1 mg/ml Proteinase K, 16-24 hr, 65° C., additive 0.1 M): 0%
maceration of liver slice (slices of liver; 1 mg/ml Proteinase K, 16-24 hr, 65° C., additive 1 M): 0%
maceration of liver slice (slices of liver; 1 mg/ml Proteinase K, 1 hr, 65° C., additive 0.1 M): 0%
maceration of liver slice (slices of liver; 1 mg/ml Proteinase K, 1 hr, 65° C., additive 1 M): 0%
maceration of liver slice (slices of liver; No Proteinase K, 16-24 hr, 65° C., additive 0.1 M): 0%
maceration of liver slice (slices of liver; No Proteinase K, 16-24 hr, 65° C., additive 1 M): 0%

(octylphenoxy)polyethoxyethanol [IGEPA]
Solubility of surfactant ([2]; pH 6): S
Solubility of surfactant ([2]; pH 10): S

Benzalkonium Chloride
Tissue Disaggregation (Liver tissue [1]; [4]): 0
Tissue Disaggregation (Liver tissue [1]; [5]): 1
Tissue Disaggregation (Liver tissue [1]; [6]): 0
Tissue Disaggregation (Liver tissue [1]; [7]): 2

Quaternium-84 [Mackernium NLE]
Tissue Disaggregation (Liver tissue [1]; [4]): 0
Tissue Disaggregation (Liver tissue [1]; [5]): 1
Tissue Disaggregation (Liver tissue [1]; [6]): 0
Tissue Disaggregation (Liver tissue [1]; [7]): 1

polyoxyethylenesorbitan monolaurate [Tween 21]
Solubility of surfactant ([2]; pH 6): S
Solubility of surfactant ([2]; pH 10): S

polyoxyethylenesorbitan monooleate [Tween 80]
maceration of liver slice (slices of liver; [8]): 0%
maceration of liver slice (slices of liver; [9]): 0%
maceration of liver slice (slices of liver; [10]): 0%
maceration of liver slice (slices of liver; [11]): 0%
Solubility of surfactant ([2]; pH 6): S
Solubility of surfactant ([2]; pH 10): S

polyoxyethylenesorbitan monopalmitate [Tween 40]
Solubility of surfactant ([2]; pH 6): S
Solubility of surfactant ([2]; pH 10): S

polyoxyethylenesorbitan monostearate [Tween 60]
Solubility of surfactant ([2]; pH 6): S
Solubility of surfactant ([2]; pH 10): S

t-octylphenoxypolyethoxyethanol [Triton X-100]
maceration of liver slice (slices of liver; [8]): 0%
maceration of liver slice (slices of liver; [9]): 100%
maceration of liver slice (slices of liver; [10]): 0%
maceration of liver slice (slices of liver; [11]): 30%
maceration of liver slice (slices of liver; [13]): 0%
maceration of liver slice (slices of liver; [12]): 0%
Solubility of surfactant ([2]; pH 6): S
Solubility of surfactant ([2]; pH 10): S
